Earlier results as cited in patent US20050209250A1, “Therapeutic combinations of atypical antipsychotics with corticotropin releasing factor antagonists” (Pfizer Inc, priority 2004, published 2005).

Experiments:
[1] = not given; remark: listed apart in the source

half-life (in vivo): 6 to 7 h
Oral bioavailability (taken with food): approximately 60%
protein binding [1]: extensive
SMILES: Cl.O.O=C1Cc2cc(CCN3CCN(c4nsc5ccccc45)CC3)c(Cl)cc2N1 [ziprasidone, 5-[2-[4-(1,2-benzisothiazol-3-yl)piperazin-1-yl]ethyl]-6-chloroindolin-2-one hydrochloride hydrate]
